Where two headings read alike, the source gives them in different places.
Experiments:
Type in all cases: cell-based
[1] = tested on: SK-BR-3; experiment: CellTiter-Glo toxicity, 3 days (Example 7); details: Homo sapiens, SK-BR-3, 72 h; 3 days; read-out: SK-BR-3 IC50
Protocol: The toxicity of PBD monomer disulfide prodrugs 1 to 4, PBD dimer disulfide prodrugs 1 and 4, PBD monomer control 1 and PBD dimer control 1 were evaluated against SK-BR-3 cell cultures. […] The HER2-positive breast cancer cell line, SK-BR-3, was obtained internally at Genentech after having been verified by sequence analysis. The cells were grown at 37 Celsius in DMEM+10% FBS supplemented with 2 mM L-glutamine for the duration of this assay. On the first day of the experiment, designated “Day −1”, SK-BR-3 cells were harvested from tissue culture flasks, counted, and then seeded into 96-well plates at a concentration of 7,500 cells per well. The next day, designated “Day 0”, cell culture media was removed from the cells and replaced with 100 uL of fresh media containing a serial dilution (1:3) of the compounds in Table 5 below. The plates were then returned to the 37 Celsius incubator and allowed to incubate for 3 days. On “Day 3” of the assay, the plates were removed from the incubator and allowed to equilibrate to room temperature before adding 100 uL of room-temperature CellTiter-Glo reagent (Promega). The plates were then agitated at 300 rpm for 10 minutes. The luminescence signal generated from this reaction was recorded on an Envision plate reader (Perkin-Elmer). The data were arranged in Excel (Microsoft) and graphed in Kaleidagraph (Synergy Software).

[2] = tested on: KPL-4; experiment: CELLTITER GLO cell proliferation assay (Example 6); details: data in parenthesis = repeat evaluations, read-out: IC50 potency KPL-4
In short: (§1)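 Cells seeded at about 8000 (WSU-DLCL2) or 4000 (KPL-4) per well in RPMI-1640 with 10% FBS, 2 mM glutamine, 50 uM cystine and 0.015 g/L L-methionine; 10-point 1:3 dose-response in triplicate, cultured at 37° C., 5% CO2. Viability read by CellTiter-Glo luminescence, normalized to no-compound minus no-cell controls.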

[3] = tested on: WSU-DLCL2; experiment: CELLTITER GLO cell proliferation assay (Example 6); details: data in parenthesis = repeat evaluations, read-out: IC50 potency WSU-DLCL2
In short: as §1

[4] = tested on: MDA-MB-453 tumor cell line; experiment: in vitro tumor cell killing assay, 3 days (Example 13); details: Homo sapiens, 72 h; MDA-MB-453; 3 days; read-out: EC50
Protocol: The toxicity of various PBD monomer and dimer boronic acid prodrug compounds were evaluated for cell toxicity. In the in vitro tumor cell killing assay, the cells were added to each well of 96-well microtiter plates at 8,000 cells per well and were incubated overnight at 37° C. in a humidified atmosphere of 5% CO2. The cells were exposed to various concentration of the indicated prodrug, positive control and negative control compounds. Where silvestrol was evaluated, a 1:3 serial dilution was used. After incubation for 3 days, Cell titer-Glo reagent (Promega, Madison Wis.) was added to the wells at 100 μL per well followed by a 10-minute incubation at room temperature, and the luminescent signal was measured using a Packard/Perkin-Elmer TopCount.
The toxicity of PBD monomer boronic acid prodrug 1 was evaluated against MDA-MB-453 tumor cell line for cell viability. PBD monomer control 1 was used as a positive control and PBD monomer control 2 was used as a negative control. The toxicity study was repeated wherein the PBD prodrug and controls were administered in combination with silvestrol. FIG. 15C depicts a plot of MDA-MB-453 cell kill versus drug concentration in μM three days after exposure to: (i) a PBD monomer control; (ii) a PBD monomer control having a benzyl formate moiety at the N10 PBD position; and (iii) a PBD monomer boronic acid prodrug. […]

[5] = tested on: WSU Cell line; experiment: Cell viability, DTD-activated quinone prodrugs (Example 15); details: WSU Cell line (low DTD); Table 10; read-out: IC50 Potency
Protocol: (§2) The toxicity of PBD dimer diaphorase prodrug 1, PBD monomer diaphorase prodrug 2, PBD dimer control 1 and PBD monomer control 1 were evaluated against KPL-4 and WSU cell lines for cell viability. The KPL-4 cell line is was a high DTD cell line characterized by NQO1 nRPKM of 839 and the WSU cell line was a low DTD cell line characterized by a NQO1 nRPKM of 1.36. The IC50 ratios are based on the prodrug IC50 value relative to the PBD dimer control.

[6] = tested on: KPL-4 Cell line; experiment: as above; details: KPL4; KPL-4 Cell line (high DTD); Table 10; read-out: IC50 Potency
Protocol: as §2

Structure (SMILES): C=C1C[C@H]2C=Nc3cc(OC)c(OC)cc3C(=O)N2C1 [PBD monomer control 1, reference compound]
- IC50 [1]: 124 nM
- IC50 ([2]; KPL4, Table 4): 330 nM
- IC50 ([2]; Table 4): 241 nM
- IC50 ([3]; Homo sapiens, WSUDLCL2, Table 4): 106 nM
- IC50 ([3]; Table 4): 109 nM
- EC50 [4]: 164 nM
- IC50 [5]: 106 nM
- IC50 [6]: 330 nM

Source: patent publication US11576979B2, “Pyrrolobenzodiazepine prodrugs and antibody conjugates thereof” (GENENTECH, INC., priority 2016, dated 2023)
